Assay results: patent US6716833B2, “Acetylenic α-amino acid-based sulfonamide hydroxamic acid tace inhibitors” (priority 1999, dated 2004)
Where a name gives a salt, the structure may show the parent alone. Read-outs that look alike come from different tables or passages of the source.

How the values were obtained:
THP-1 cells = experiment: THP-1 soluble protein assay, soluble TNF-α (ELISA); type: cell-based, human; conditions: for inhibition at 3 µM: Homo sapiens, THP-1, 3 μM, read-out: THP % Inhibition @ 3 μM
Procedure: Each vial of cells are cultured for about two weeks prior to being used for an assay and then are used for only 4 to 6 weeks to screen compounds.
Cell exposure to DMSO was limited to 0.1% final concentration. […] Plates are placed into an incubator set at 5% CO2 and at 37° C. After 4 hours of incubation, 300 ml/well of tissue culture supernatant (TCS) is removed for use in an TNF-α ELISA.
Percent change in each soluble protein evaluated from the “vehicle positive control” was calculated for each compound concentration with the following formula:
% Change=pg/ml (compound)−pg/ml (veh pos control)/(veh pos control)−pg/ml (veh neg control)×100
For the soluble protein (TNF-α, p75/80, p55/60, IL-8) studies under stimulated conditions, the mean pg/ml of duplicate wells were determined and the results expressed as percent change from “vehicle positive control”.

MMP-13 = MMP-13 (Homo sapiens, UniProt P45452); experiment: MMP-13 inhibition (thiopeptide or fluorescent peptide substrate); type: biochemical
Procedure: (§1) The enzyme activity is measured by the rate of the color increase. The thiopeptide substrate is made up fresh as a 20 mM stock in 100% DMSO and the DTNB is dissolved in 100% DMSO as a 100 mM stock and stored in the dark at room temperature. Both the substrate and DTNB are diluted together to 1 mM with substrate buffer (50 mM HEPES pH 7.5, 5 mM CaCl2) before use. The stock of enzyme is diluted with buffer (50 mM HEPES, pH 7.5, 5 mM CaCl2, 0.02% Brij) to the desired final concentration.
(§2) Alternatively, a fluorescent peptide substrate is used. In this test procedure, the peptide substrate contains a fluorescent group and a quenching group. Upon cleavage of the substrate by an MMP, the fluorescence that is generated is quantitated on the fluorescence plate reader. The assay is run in HCBC assay buffer (50 mM HEPES, pH 7.0, 5 mM Ca^+2, 0.02% Brij, 0.5% Cysteine), with human recombinant MMP-1, MMP-9, or MMP-13. […] For the assay, substrate and enzymes are diluted in HCBC buffer to the desired concentrations. Compounds are added to the 96 well plate containing enzyme and the reaction is started by the addition of substrate.
(§3) For either the thiopeptide or fluorescent peptide test procedures, the slope of the line is calculated and represents the reaction rate. The linearity of the reaction rate is confirmed (r^2>0.85). The mean (x±sem) of the control rate is calculated and compared for statistical significance (p<0.05) with drug-treated rates using Dunnett's multiple comparison test.

MMP-9 = MMP-9 (Homo sapiens, UniProt P14780); experiment: MMP-9 inhibition (thiopeptide or fluorescent peptide substrate); type: biochemical
[1] = target: TNF-α converting enzyme (TACE) (Homo sapiens, UniProt P78536); experiment: TACE inhibition (fluorescent peptidyl substrate); type: biochemical; conditions: read-out: TACE IC50
Procedure: Using 96-well black microtiter plates, each well receives a solution composed of 10 μL TACE (final concentration 1 μg/mL), 70 μL Tris buffer, pH 7.4 containing 10% glycerol (final concentration 10 mM), and 10 μL of test compound solution in DMSO (final concentration 1 μM, DMSO concentration <1%) and incubated for 10 minutes at room temperature.
The reaction is read (excitation 340 nm, emission 420 nm) for 10 min. and the increase in fluorescence over time is plotted as a linear line. The slope of the line is calculated and represents the reaction rate.
The linearity of the reaction rate is confirmed (r^2>0.85). The mean (x±sem) of the control rate is calculated and compared for statistical significance (p<0.05) with drug-treated rates using Dunnett's multiple comparison test.

MMP-1 = target: T1, MMP-1 (Homo sapiens, UniProt P03956); experiment: MMP-1 inhibition (thiopeptide or fluorescent peptide substrate); type: biochemical
T1 sequence (P03956 100-469): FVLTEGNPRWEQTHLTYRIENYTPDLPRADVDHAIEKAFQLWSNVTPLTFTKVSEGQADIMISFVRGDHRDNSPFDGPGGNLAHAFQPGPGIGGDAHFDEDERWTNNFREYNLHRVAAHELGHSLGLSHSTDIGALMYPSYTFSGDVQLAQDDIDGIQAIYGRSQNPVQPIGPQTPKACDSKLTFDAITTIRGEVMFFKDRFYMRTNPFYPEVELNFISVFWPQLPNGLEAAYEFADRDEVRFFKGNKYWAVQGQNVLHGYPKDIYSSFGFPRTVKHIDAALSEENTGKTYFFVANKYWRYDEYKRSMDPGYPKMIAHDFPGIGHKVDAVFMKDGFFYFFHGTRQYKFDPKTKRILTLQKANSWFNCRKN
Procedure: as §1, §2, §3

Chain of MMP-9 (P14780 94-707): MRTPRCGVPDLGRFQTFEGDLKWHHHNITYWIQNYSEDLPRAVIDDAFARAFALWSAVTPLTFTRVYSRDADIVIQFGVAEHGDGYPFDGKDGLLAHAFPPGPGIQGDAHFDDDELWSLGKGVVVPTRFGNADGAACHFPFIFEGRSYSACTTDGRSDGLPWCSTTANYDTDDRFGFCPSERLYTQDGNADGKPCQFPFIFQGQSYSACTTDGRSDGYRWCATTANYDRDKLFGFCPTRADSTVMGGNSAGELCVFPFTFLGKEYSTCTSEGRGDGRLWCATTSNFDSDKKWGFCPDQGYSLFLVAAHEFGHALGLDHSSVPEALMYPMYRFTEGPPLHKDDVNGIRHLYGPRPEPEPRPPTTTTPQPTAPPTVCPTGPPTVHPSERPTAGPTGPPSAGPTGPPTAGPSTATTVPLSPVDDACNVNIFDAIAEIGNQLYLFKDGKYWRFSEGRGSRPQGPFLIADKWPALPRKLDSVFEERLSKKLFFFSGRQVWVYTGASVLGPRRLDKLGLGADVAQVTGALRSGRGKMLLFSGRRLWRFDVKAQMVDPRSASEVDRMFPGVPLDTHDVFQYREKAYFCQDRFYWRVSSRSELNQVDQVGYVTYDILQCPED
Chain of TNF-α converting enzyme (TACE) (P78536 215-824, species assumed): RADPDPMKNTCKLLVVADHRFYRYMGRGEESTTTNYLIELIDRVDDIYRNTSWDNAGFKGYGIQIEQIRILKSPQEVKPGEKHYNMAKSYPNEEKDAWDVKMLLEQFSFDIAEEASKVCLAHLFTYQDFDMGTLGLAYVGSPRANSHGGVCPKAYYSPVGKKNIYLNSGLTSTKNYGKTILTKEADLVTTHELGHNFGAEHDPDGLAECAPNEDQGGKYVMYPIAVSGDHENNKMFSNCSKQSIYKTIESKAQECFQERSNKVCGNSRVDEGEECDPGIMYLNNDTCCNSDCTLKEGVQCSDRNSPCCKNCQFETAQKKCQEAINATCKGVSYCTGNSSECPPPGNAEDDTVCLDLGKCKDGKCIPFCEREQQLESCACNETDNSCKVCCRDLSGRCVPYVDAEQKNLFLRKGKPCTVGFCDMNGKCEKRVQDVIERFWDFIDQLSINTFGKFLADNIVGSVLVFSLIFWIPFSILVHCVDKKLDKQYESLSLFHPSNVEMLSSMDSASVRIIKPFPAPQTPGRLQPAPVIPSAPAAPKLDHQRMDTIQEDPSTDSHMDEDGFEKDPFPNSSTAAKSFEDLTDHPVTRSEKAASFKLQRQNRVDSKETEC

Compound | inhibition at 3 µM (THP-1 cells; THP-1 cells) [%] | IC50 (MMP-13; read-out: MMP-13 IC50) [nM] | IC50 (MMP-9; read-out: MMP-9 IC50) [nM] | IC50 [1] [nM] | IC50 (MMP-1; read-out: MMP-1 IC50) [nM] | melting point [°C] | IC50 (MMP-13; MMP-13 IC50) [nM] | IC50 (MMP-9; MMP-9 IC50) [nM] | IC50 (MMP-1; MMP-1 IC50) [nM] | THP % Inhibition @ 3 μM (THP-1 cells; THP-1 cells) [%] | inhibition at 3 µM (THP-1 cells; Table 10) [%] | IC50 (MMP-13; Table 10, read-out: MMP-13 IC50) [nM] | IC50 (MMP-9; MMP-9 IC50, Table 10) [nM] | IC50 ([1]; Table 10) [nM] | IC50 (MMP-1; Table 10, read-out: MMP-1 IC50) [nM]
CC#CCOc1ccc(S(=O)(=O)NC(C(=O)NO)C(C)(C)SCCC)cc1 (centres unmarked) [Example 160, 2-[(4-but-2-ynyloxy-Benenesulfonyl)-amino]-N-hydroxy-3-methyl-3-propylsulfanyl-butyramide] | 67 | 65 | 1010 | 15 | 1400 | 152 to 155 | – | – | – | – | – | – | – | – | –
CC#CCOc1ccc(S(=O)(=O)NC(C(=O)NO)C(C)C)cc1 (centres unmarked) [Example 27, 2-(4-but-2-ynyloxy-Benzenesulfonylamino)-N-hydroxy-3-methyl-butyramide] | 75 | – | – | 32 | – | – | 18 | 42 | 2960 | – | – | – | – | – | –
CC#CCOc1ccc(S(=O)(=O)NC(C(=O)NO)C(C)(C)SCC)cc1 (centres unmarked) [Example 159, 2-[(4-but-2-ynyloxy-Benenesulfonyl)-amino]-N-hydroxy-3-methyl-3-ethylsulfanyl-butyramide] | 76 | 42 | 424 | 12 | 852 | 46 to 50 | – | – | – | – | – | – | – | – | –
CC#CCOc1ccc(S(=O)(=O)N(CC#CCN(CC)CC)C(C(=O)NO)C(C)C)cc1 (centres unmarked) [Example 126] | – | 36 | 149 | 73 | 212 | – | – | – | – | 93 | – | – | – | – | –
CC#CCOc1ccc(S(=O)(=O)N[C@@H](C(=O)NO)C(C)(C)SC)cc1 [Example 158] | 78 | 30 | 164 | 25 | 1020 | 128 to 132 | – | – | – | – | – | – | – | – | –
CC1(C)SCCN(S(=O)(=O)c2ccc(OCC#CCO)cc2)C1C(=O)NO (centres unmarked) [Example 61, 4-[4-(4-Hydroxy-but-2-ynyloxy)-benzenesulfonyl]-2,2-dimethyl-thiomorpholine-3-carboxylic Acid Hydroxyamide] | – | – | – | – | – | – | – | – | – | – | 89 | 13 | 70 | 40 | 24
CC#CCOc1ccc(S(=O)(=O)NC(C(=O)NO)C(C)(C)SCc2cccnc2)cc1 (centres unmarked) [Example 161] | – | 7.9 | 130 | 6.4 | 476 | – | – | – | – | 81 | – | – | – | – | –
CC#CCOc1ccc(S(=O)(=O)NC(C(=O)NO)C(C)(C)SCCN2CCOCC2)cc1 (centres unmarked) [Example 164] | 70 | 20 | 204 | 64 | 1570 | 72 | – | – | – | – | – | – | – | – | –
CC#CCOc1ccc(S(=O)(=O)NC(C(=O)NO)C(C)(C)SCC(=O)OC(C)(C)C)cc1 (centres unmarked) [Example 165] | 84 | 177 | 587 | 69 | 2430 | 47 to 52 | – | – | – | – | – | – | – | – | –
CC#CCOc1ccc(S(=O)(=O)NC(C(=O)NO)C(C)(C)SCc2nccn2C)cc1 (centres unmarked) [Example 163] | 77 | 47 | 306 | 18 | 1720 | 112 to 115 | – | – | – | – | – | – | – | – | –
CC#CCOc1ccc(S(=O)(=O)N[C@@H](C(=O)NO)C2CCC(O)CC2)cc1 (stereo partly drawn) [Example 129, (2R)-{[4-(2-Butynyloxy)phenyl]sulfonyl}amino-N-hydroxy-2-(4-hydroxycyclohexyl)ethanamide] | 92 | 28 | 192 | 7.4 | 1040 | 180 to 182 | – | – | – | – | – | – | – | – | –
CC#CCOc1ccc(S(=O)(=O)NC2(C(=O)NO)CCCCC2)cc1 [Example 138, 1-({[4-(2-Butynyloxy)phenyl]sulfonyl}amino)-N-hydroxycyclohexanecarboxamide] | 19 | 619 | 2170 | 27 | 5170 | 82 to 84 | – | – | – | – | – | – | – | – | –
CC#CCOc1ccc(S(=O)(=O)N[C@@H](C(=O)NO)[C@@H](C)CC)cc1 [Example 105, (2R,3S)-2-({[4-(2-Butynyloxy)phenyl]sulfonyl}amino)-N-hydroxy-3-methylpentanamide] | 87 | 52 | 213 | 6.8 | 1740 | – | – | – | – | – | – | – | – | – | –
2-[[4-Butynyloxy-phenylsulfonyl]-amino]-N-hydroxy-3-(pyridinylthio)propanamide [Example 169] | – | 28 | 160 | 2.9 | 1910 | – | – | – | – | 77 | – | – | – | – | –
CN(CC(=O)NO)S(=O)(=O)c1ccc(OCC#Cc2ccc(Cl)cc2)cc1 [Example 132] | – | 1120 | 2370 | 1100 | > 10000 | – | – | – | – | 27 | – | – | – | – | –
CC#CCOc1ccc(S(=O)(=O)NC(CSCCCCCCCCCC/C=C\CC)C(=O)NO)cc1 (centres unmarked) [Example 170, 2-({[4-(2-butynyloxy)phenyl]sulfonyl}amino)-N-hydroxy-3-[(Z)-11-tetradecenylsulfanyl]propanamide] | 7 | 322 | 1570 | 272 | > 10000 | – | – | – | – | – | – | – | – | – | –
CC#CCOc1ccc(S(=O)(=O)NC2(C(=O)NO)CCCC2)cc1 [Example 139, 1-({[4-(2-Butynyloxy)phenyl]sulfonyl}amino)-N-hydroxycyclopentanecarboxamide] | 26 | 1270 | 3700 | 37 | > 10000 | 66 to 68 | – | – | – | – | – | – | – | – | –
CC#CCOc1ccc(S(=O)(=O)N2CCN(S(C)(=O)=O)CC2C(=O)NO)cc1 (centres unmarked) [Example 227, 1-(4-but-2-ynyloxy-Benzenesulfonyl)-4-methanesulfonyi-piperazine-2-carboxylic Acid Hydroxyamide] | 81 | 6.4 | 51 | – | 96 | – | – | – | – | – | – | – | – | – | –
CC#CCOc1ccc(S(=O)(=O)NC(C(=O)NO)C(C)(C)SCc2ccccc2)cc1 (centres unmarked) [Example 162] | 49 | 8.3 | 138 | 19 | 310 | 92 to 95 | – | – | – | – | – | – | – | – | –
CC#CCOc1ccc(S(=O)(=O)NC(C)C(=O)NO)cc1 (centres unmarked) [Example 30, 2-(4-but-2-ynyloxy-Benzenesulfonylamino)-N-hydroxy-propionamide] | 60 | 40 | 262 | 6 | 4390 | – | – | – | – | – | – | – | – | – | –
CC#CCOc1ccc(S(=O)(=O)NC(C(=O)NO)C(C)(C)SCC(=O)O)cc1 (centres unmarked) [Example 166, tert-Butyl {[2-({[4-2-Butynyloxy)phenyl]sulfonyl}amino)-3-(hydroxyamino)-1,1-dimethyl-3-oxopropyl]sulfanyl Acetic Acid, Sodium Salt] | 55 | 241 | 2940 | – | 1900 | – | – | – | – | – | – | – | – | – | –
CC#CCOc1ccc(S(=O)(=O)N[C@@H](C(=O)NO)C(C)(C)C)cc1 [Example 106, (2R)-2-({[4-(2-Butynyloxy)phenyl]sulfonyl)amino)-N-hydroxy-3,3-dimethylbutanamide] | 91 | 41 | 224 | 17 | 880 | – | – | – | – | – | – | – | – | – | –
CC#CCOc1ccc(S(=O)(=O)N(C)[C@H](CSC)C(=O)NO)cc1 [Example 154] | 90 | 5.4 | 19 | 3.3 | 47 | – | – | – | – | – | – | – | – | – | –
CC#CCOc1ccc(S(=O)(=O)N(C)C(C(=O)NO)C(C)(C)SCCN2CCCC2C(=O)OC)cc1 (centres unmarked) [Example 145] | – | 2.5 | 7.1 | 109 | 18 | – | – | – | – | 83 | – | – | – | – | –
